# Test results: patent US6887873B2, “Triazine derivatives and their application as antitelomerase agents” (Aventis Pharma S.A., priority 2001, dated 2005)
# Columns and labels:
# [1] = tested on: human telomerease (HL60 cell extract); assay: Antitelomerease activity: extension of oligonucleotide TS followed by PCR amplification, with HL60 extract; assay type: biochemical; settings: read-out: TRAP IC50
# Summary of the method: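 HL60 CHAPS-lysate extract extends TS primer (15 min, 30 °C) with compound at 10, 1, 0.1 and 0.01 µM, followed by 30-cycle PCR with TS and CXext. Products resolved on 12% acrylamide and quantified; % inhibition versus enzyme control and blank, IC50 read from semilog plot.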
# [2] = tested on: G-quadruplex of oligonucleotide GGGTTAGGGTTAGGGTTAGGG (3.5 repeats of the human telomereic motif); assay: G-quadruplex stabilizing activity, fluorescence Tm (FAM+DABCYL oligonucleotide); assay type: binding
# Summary of the method: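 FAM/DABCYL-labelled telomeric oligonucleotide (0.2 μM strand) in 10 mM sodium cacodylate pH 7.6 with 0.1 M LiCl (or NaCl) was annealed, then incubated ≥1 h at 20 °C with compound at 1 μM final. Samples were heated 20→80 °C, with excitation at 470 nm and emission at 515/588 nm. Tm is the 515 nm emission midpoint.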
smiles,measurement,setting,value
Cc1cc(N)c2cc(Nc3nc(Nc4ccncc4)nc(Nc4ccc5nc(C)cc(N)c5c4)n3)ccc2n1 [Example 10],IC50,[1],360 nM
same,G4 delta Tm,[2],8.9 °C
Cc1cc(N)c2cc(Nc3nc(NCCCN(C)C)nc(Nc4ccc5nc(C)cc(N(C)C)c5c4)n3)ccc2n1 [Example 9],IC50,[1],100 nM
same,G4 delta Tm,[2],10.0 °C
"Cc1cc(N)c2cc(Nc3nc(Nc4ccc5nc(C)cc(N)c5c4)nc(OCc4ccccc4)n3)ccc2n1 [Example 33, 2,4-bis(4-amino-2-methylquinolin-6-yl)amino-6-(phenylmethyl)oxy-[1,3,5]triazine]",IC50,[1],400 nM
same,G4 delta Tm,[2],10.0 °C
Cc1cc(N(C)C)c2cc(Nc3nc(Nc4ccc5nc(C)cc(N(C)C)c5c4)nc(N4CCCC4)n3)ccc2n1 [Example 23],IC50,[1],3000 nM
same,G4 delta Tm,[2],9.2 °C
Cc1cc(C)nc(Oc2nc(Nc3ccc4nc(C)cc(N)c4c3)nc(Nc3ccc4nc(C)cc(N)c4c3)n2)n1 [Example 109],IC50,[1],340 nM
same,G4 delta Tm,[2],4.5 °C
Cc1cc(N)c2cc(Nc3nc(NCCO)nc(Nc4ccc5nc(C)cc(N)c5c4)n3)ccc2n1 [Example 158],IC50,[1],850 nM
same,G4 delta Tm,[2],8 °C
Cc1cc(N(C)C)c2cc(Nc3nc(Nc4ccc5nc(C)cc(N(C)C)c5c4)nc(N4CCOCC4)n3)ccc2n1 [Example 24],IC50,[1],1600 nM
same,G4 delta Tm,[2],9.7 °C
CCN(CCSc1nc(Nc2ccc3nc(C)cc(N)c3c2)nc(Nc2ccc3nc(C)cc(N)c3c2)n1)Cc1ccccc1 [Example 131],IC50,[1],910 nM
same,G4 delta Tm,[2],4.5 °C
Cc1cc(N(C)C)c2cc(Nc3nc(NCC(O)CO)nc(Nc4ccc5nc(C)cc(N(C)C)c5c4)n3)ccc2n1 (stereo not drawn) [Example 176],IC50,[1],3000 nM
same,G4 delta Tm,[2],6 °C
CCN(CC)CCN1CCN(c2nc(Nc3ccc4nc(C)cc(N)c4c3)nc(Nc3ccc4nc(C)cc(N)c4c3)n2)CC1 [Example 44],IC50,[1],100 nM
same,G4 delta Tm,[2],17 °C
Cc1cc(N)c2cc(Nc3nc(NCCN(C(C)C)C(C)C)nc(Nc4ccc5nc(C)cc(N)c5c4)n3)ccc2n1 [Example 39],IC50,[1],230 nM
same,G4 delta Tm,[2],19.5 °C
COCCOc1nc(Nc2ccc3nc(C)cc(N)c3c2)nc(Nc2ccc3nc(C)cc(N)c3c2)n1 [Example 112],IC50,[1],320 nM
same,G4 delta Tm,[2],15 °C
Cc1cc(N)c2cc(Nc3nc(Nc4ccc5nc(C)cc(N)c5c4)nc(N4CCN(c5ncccn5)CC4)n3)ccc2n1 [Example 58],IC50,[1],220 nM
same,G4 delta Tm,[2],6 °C
Cc1cc(N)c2cc(Nc3nc(Nc4ccc5nc(C)cc(N)c5c4)nc(N4CCN(CCO)CC4)n3)ccc2n1 [Example 154],IC50,[1],200 nM
same,G4 delta Tm,[2],19 °C
Cc1cc(N(C)C)c2cc(Nc3nc(Nc4ccc5nc(C)cc(N(C)C)c5c4)nc(NC(C)CO)n3)ccc2n1 (stereo not drawn) [Example 175],IC50,[1],3000 nM
same,G4 delta Tm,[2],3 °C
Cc1cc(N)c2cc(Nc3nc(Nc4ccc5nc(C)cc(N)c5c4)nc(N4CCCCC4CN4CCCCC4)n3)ccc2n1 (stereo not drawn) [Example 70],IC50,[1],560 nM
same,G4 delta Tm,[2],9.5 °C
CCN(CCN(C)C)c1nc(Nc2ccc3nc(C)cc(N)c3c2)nc(Nc2ccc3nc(C)cc(N)c3c2)n1 [Example 53],IC50,[1],200 nM
same,G4 delta Tm,[2],15.5 °C
Cc1cc(N(C)C)c2cc(Nc3nc(NCCc4ccccc4)nc(Nc4ccc5nc(C)cc(N(C)C)c5c4)n3)ccc2n1 [Example 26],IC50,[1],1100 nM
same,G4 delta Tm,[2],4.8 °C
